Assay results published in PubChem BioAssay (NCI).
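Growth conditions: 96-well plates. Treatment: test compound, 48 hours, 5 concentrations. Analysis: linear interpolation between bracketing concentrations; unreached endpoints set to highest concentration. Here, GI50 denotes the concentration required for 50% inhibition of growth. TGI is the concentration that stops growth completely.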

Experiments:
Test in all cases: DTP human tumour cell line panel, 48 h
MALME-3M melanoma = test system: MALME-3M melanoma
DLD-1 colon = test system: DLD-1 colon
M19-MEL melanoma = test system: M19-MEL melanoma
HOP-62 NSCLC = test system: HOP-62 NSCLC
LOX IMVI melanoma = test system: LOX IMVI melanoma
OVCAR-5 ovarian = test system: OVCAR-5 ovarian
A549 NSCLC = test system: A549 NSCLC
KM20L2 colon = test system: KM20L2 colon
MOLT-4 leukemia = test system: MOLT-4 leukemia
HCT-116 colon = test system: HCT-116 colon
UACC-257 melanoma = test system: UACC-257 melanoma

SMILES	TGI (MALME-3M melanoma) [µM]	TGI (DLD-1 colon) [µM]	TGI (M19-MEL melanoma) [µM]	TGI (HOP-62 NSCLC) [µM]	TGI (LOX IMVI melanoma) [µM]	TGI (OVCAR-5 ovarian) [µM]	TGI (A549 NSCLC) [µM]	TGI (KM20L2 colon) [µM]	TGI (MOLT-4 leukemia) [µM]	TGI (HCT-116 colon) [µM]	TGI (UACC-257 melanoma) [µM]	GI50 (MALME-3M melanoma) [µM]	GI50 (HOP-62 NSCLC) [µM]	GI50 (OVCAR-5 ovarian) [µM]	GI50 (A549 NSCLC) [µM]	GI50 (MOLT-4 leukemia) [µM]	GI50 (HCT-116 colon) [µM]	GI50 (UACC-257 melanoma) [µM]	GI50 (LOX IMVI melanoma) [µM]
Nc1ncnc2c1ncn2C1CCC(CO)O1 (configuration not stated)	> 100	> 100	> 100	> 100	> 100	> 100	> 100	> 100	> 100	> 100	> 100	–	–	–	–	–	–	–	–
CCOP(=O)(OCC)C(Cc1ccc(OC)c(OC)c1)N=C(c1ccccc1)c1ccccc1 (configuration not stated)	–	–	–	–	–	> 100	> 100	–	–	> 100	> 100	–	–	–	–	–	–	–	–
CC(C)=CCc1c(C)cc2cc3c(c(O)c2c1O)C(O)=CC(=O)C3(CC=C(C)C)C/C=C(\C)CO (configuration not stated)	63.8	70.9	79.9	64.3	77.4	84.6	77	76.6	75.7	72.3	82.6	–	–	–	–	–	–	–	–
CC[C@@H](C(=O)[C@@H](C)[C@@H](O)[C@H](C)CCc1ccc(C)c(O)c1C(=O)O)[C@H]1O[C@](CC)([C@H]2CC[C@](O)(CC)[C@H](C)O2)C[C@@H]1C	2.42	13.8	4.06	4.24	12	19.3	11.9	11.6	3.12	9.65	11.3	–	–	–	–	–	–	–	–
COc1c2c(cc3c(CCc4ccccc4)cc(=O)oc13)CCC(C)(C)O2	> 100	> 100	> 100	> 100	> 100	> 100	–	> 100	> 100	> 100	> 100	–	–	–	–	–	–	–	–
CCOc1ccc2c(ccc(/C=C\c3cc(C)c4cccnc4c3O)[n+]2C)c1	14	4.32	> 100	28	66.4	16.7	26.4	37	10.6	25	6.9	–	–	–	–	–	–	–	–
O=C1CN2C(Cl)(Cl)C2(c2ccccc2)c2cc(Cl)ccc2N1CC(F)(F)F (configuration not stated)	87	42.9	> 100	60.7	39	> 100	–	> 100	55.8	49.3	51.9	–	–	–	–	–	–	–	–
CCOc1ccc(/C=C/[N+](=O)[O-])cc1	36.9	–	–	26.3	–	19.8	27.7	–	42.9	3.55	24	19	12.5	6.31	12.6	5.7	1.93	11.2	–
[C-]#[O+].[Cl][Sn]([Cl])[Cl].[Cl][Sn]([Cl])[Cl].[Pt].c1ccncc1	> 100	> 100	–	> 100	> 31.6	> 100	> 100	> 100	> 100	> 100	> 100	–	–	–	–	–	–	–	–
O=C(O)c1cc(=O)[nH]c(=S)[nH]1	> 100	–	–	> 100	> 100	> 100	> 100	–	> 100	> 100	> 100	–	–	–	–	–	–	–	–
O=C(Nc1nc2ccc([N+](=O)[O-])cc2[n+]([O-])n1)C(F)(F)F	20.4	–	–	–	–	> 100	83.8	–	81.6	60.1	37.9	–	–	–	–	–	–	–	–
CC(C)=CC(=O)OC1C2C(C)C(=O)OC2C(O)C(C)C2C=CC(=O)C21C (configuration not stated)	8.28	3.9	8.42	14.7	3.44	12.9	33.6	7.76	9.71	4.69	8.4	–	–	–	–	–	–	–	–
CCCCN(CCCC)CCCCNc1c(C)cnc2cc(Cl)ccc12	36.1	–	> 100	68.2	29.7	39.1	> 100	36.7	> 100	42	32.5	–	–	–	–	–	–	–	–
Cc1ccc(S(=O)(=O)Oc2cc(S(=O)(=O)O)cc3cc(S(=O)(=O)O)cc(N)c23)cc1	> 100	–	–	> 100	> 100	> 100	> 100	–	–	> 100	> 100	–	–	–	–	–	–	–	–
CCN(CC)CCCC(Nc1c2ccc(Cl)cc2nc2ccc(OC)cc12)c1ccc(F)cc1 (configuration not stated)	3.68	–	–	6.87	3.26	5.6	5.99	–	7.06	3.48	4.1	1.99	2.54	2.04	2.44	2.72	1.84	2.02	1.77
CN1C2C=C(c3ccccc3)CC1CC2 (configuration not stated)	> 100	> 100	> 100	–	> 100	> 100	> 100	> 100	> 100	> 100	> 100	–	–	–	–	–	–	–	–
O=C(Nc1ccc(Cl)cc1)/C(Cc1cccc[n+]1[O-])=N\Nc1ccc([N+](=O)[O-])cc1[N+](=O)[O-]	> 100	> 100	> 100	> 100	> 100	> 100	> 100	> 100	> 100	> 100	> 100	–	–	–	–	–	–	–	–
c1ccc2c(c1)nc1n2CSC1	> 100	> 100	> 100	–	> 100	–	–	> 100	> 100	–	–	–	–	–	–	–	–	–	–
CC1=C[C@]2(CC(C)C3C(CC4(C)C5CCC6C(C)(C)C(=O)CC[C@@]67C[C@@]57CC[C@]34C)O2)OC1=O (some centres not stated)	> 100	> 100	–	–	46.6	> 100	> 100	–	> 100	> 100	> 100	–	–	–	–	–	–	–	–
CN1CCN(Cc2ccc(NC(=O)c3ccc(C#N)c(C#Cc4cnc(N)c5ncccc45)c3)cc2C(F)(F)F)CC1	–	–	–	–	–	3.34	–	–	8.04	–	–	–	–	1.71	–	1.82	–	–	–
CC(=O)[O-].CC(=O)[O-].[NH2-].[Pt+2].c1ccncc1	> 100	–	–	> 100	> 100	> 100	> 100	–	27.3	> 100	–	–	–	–	–	–	–	–	–
O=C1Nc2ccccc2Nc2nc3cccccc-3c21	> 100	> 100	> 100	> 100	> 100	> 100	> 100	> 100	–	> 100	–	–	–	–	–	–	–	–	–
CC1(C)CCc2cc3c(-c4ccccc4)cc(=O)oc3cc2O1	> 100	> 100	> 100	–	> 100	–	–	> 100	> 100	–	–	–	–	–	–	–	–	–	–
Cc1nc2ccccc2c(=O)n1CC(=O)O	> 100	> 100	> 100	> 100	> 100	> 100	> 100	> 100	> 100	> 100	> 100	–	–	–	–	–	–	–	–
